# Measured values from patent publication US20220273732A1, “PROBIOTIC THERAPIES FOR SOCIAL DEFICIT AND STRESS RESPONSE” (California Institute of Technology, priority 2021, published 2022).
# Entries after “also recorded” stand apart in the source; their conditions may differ. No end group written: not given here.
# Tests used:
# corticosterone = test: Serum corticosterone measurement (Corticosterone EIA Kit); format: in vivo, mice; settings: for serum corticosterone: CNO i.p.; for serum corticosterone levels: GF mice, 50 mg/kg i.p., vs CMC vehicle, 50 mg/kg
# Procedure: Whole blood was collected either by cardiac puncture or retro-orbital bleeding, and placed into Micro tube Z gel (41.1378.005; Sarstedt). Serum was separated by centrifuge at 10,000×g for five minutes, and stored at −80° C. until use. Corticosterone levels were detected by the Corticosterone EIA Kit (K014-H5; Arbor Assays) using the manufacturer's protocol. Due to the nature of the circadian rhythm for the corticosterone, the blood sample was collected during 1:00-5:00 pm on each day of experiment.
# c-Fos = c-Fos staining of brain sections after social interaction; format: in vivo; settings: ABX hM4Di mice, CNO
# Procedure: All brain samples for c-Fos expression were collected one hour after the reciprocal social interaction test. Mice were anesthetized by intraperitoneal injection with a mixture of 100 mg/kg ketamine and 10 mg/kg xylazine. The mice were then perfused via the cardiovascular system with PBS followed by 4% paraformaldehyde (Electron Microscopy Sciences). Brains were removed and post-fixed in 4% paraformaldehyde 3-5 days at 4° C. The brains were kept in PBS with 0.02% sodium azide at 4° C. until sectioning.
# The brains were embedded in 4% UltraPure low melting point agarose (ThermoFisher) and were coronally sectioned by vibratome (VT1000S; Leica) at a thickness of 50 μm, with the exception of the brain sections for FIGS. 1D-1F that were sectioned at a thickness of 100 μm. Brain sections of 50 μm were collected and stained every 0.15 mm. Brain sections of 100 μm were collected sequentially and stained entirely. The brain sections were stored as free-floating in PBS with 0.02% sodium azide at 4° C. until staining. […] The next day, sections were incubated with fluorescence-conjugated secondary antibody for 1.5-2 hours at room temperature. […] The fluorescence-conjugated secondary antibodies were donkey anti-goat (1:1000), donkey anti-rabbit (1:1000), and donkey anti-mouse (1:1000) (ThermoFisher Scientific). […]
# mice [1] = test: Reciprocal social interaction (RSI) test, social activity; format: in vivo; settings: for social activity of ABX adrenalectomized mice: under drug treatment, compared to ABX sham and vehicle sham mice
# mice [2] = test: Non-social activity (self-grooming, digging, rearing) in the RSI paradigm; format: in vivo
# Excerpt: Minimal aggressive behaviors were observed. Each novel mouse was used for testing up to two times per day. Subject mice undergoing repeated testing throughout the experiment were confronted with a novel mouse each time. The following social investigation behaviors constituted “social activity” and were scored as such: anogenital sniffing, nose-nose sniffing, active approach, and push under/crawl. The following solitary behaviors during social interaction constituted “non-social activity” and were scored as such: self-grooming, digging, and rearing. All behaviors were analyzed using of ETHOM software (Shih, 2000).
# Novel cage behavior is a widely-used test for measuring the non-social activity in a novel environment. The subject mouse was placed in an unused, sterilized cage. Non-social activity was video recorded for 5 minutes. The following solitary behaviors during social interaction constituted “non-social activity” and were scored as such: self-grooming, digging, and rearing. All behaviors were analyzed using of ETHOM software (Shih, 2000).
compound,measurement,setting,value
"C[N+]1([O-])CCN(C2=Nc3cc(Cl)ccc3Nc3ccccc32)CC1 [CNO, clozapine N-oxide]",serum corticosterone,"corticosterone; ABX hM4Di mice (PVN), after social interaction",decreased; also recorded: reduction
same,serum corticosterone,corticosterone; SPF hM3Dq mice (PVN),increased
same,c-Fos expression in the BNST or DG,c-Fos,did not alter
same,c-Fos staining in the PVN,c-Fos,decreased
same,social behavior,"mice [1]; ABX Crh-ires-Cre mice with hM4Di in PVN, CNO i.p. 2-3 mg/kg",dramatically increased
same,social behavior,"mice [1]; ABX mice receiving control virus (mCherry) in PVN, CNO i.p.",no change
same,social behavior,"mice [1]; SPF hM3Dq mice (PVN), CNO i.p.",significantly decreased
same,non-social activity,"mice [2]; SPF hM3Dq mice, chemogenetic activation of PVN CRH neurons",increased
"CC#C[C@]1(O)CC[C@H]2[C@@H]3CCC4=CC(=O)CCC4=C3[C@@H](c3ccc(N(C)C)cc3)C[C@@]21C [RU-486, mifepristone]",social activity,"mice [1]; ABX control mice vs ABX Nr3cl^ΔDG or Nr3cl^ΔBNST mice, 40 mg/kg i.p.",enhanced social activity only in ABX control mice
same,social activity of ABX adrenalectomized mice,mice [1],elevated
C[C@]12C[C@H](O)[C@H]3[C@@H](CCC4=CC(=O)CC[C@@]43C)[C@@H]1CC[C@@H]2C(=O)CO [corticosterone],social behavior,"mice [1]; acute injection, 10 mg/kg i.p. on two consecutive days, all groups (vehicle sham, ABX sham, ABX ADX)",impaired
same,social activity,"mice [1]; injection into the DG and BNST of SPF mice (corticosterone 65 μM, dexamethasone 20 mM)",decreased
CC(C)(C(=O)c1cccnc1)c1cccnc1 [metyrapone],serum corticosterone levels,corticosterone; after social interaction,effectively reduced
same,serum corticosterone levels,"corticosterone; after social interaction, listed as MET",reduction
same,social activity,"mice [1]; GF mice, 50 mg/kg i.p., 40 min before test, vs CMC vehicle",significantly increased
same,social activity of ABX sham mice compared to vehicle sham mice,"mice [1]; during drug treatment i.p. (RU-486 40 mg/kg, MET 50 mg/kg)",increased
same,social activity of ABX adrenalectomized mice,mice [1],elevated
"CRF: synthetic corticotropin-releasing factor (SEEPPISLDLTFHLLREVLEMARAEQLAQQAHSNRKLMEII; ends and bridges not checked; UniProt P06850 154-194, looked up)",social activity toward a novel mouse,"mice [1]; injection into the PVN of SPF mice (210 μM or 42 μM, 450 nL per hemisphere)",dramatically reduced
same,non-social activity,mice [2]; high levels of CRF into PVN of SPF mice,reversed these changes
same,non-social activity,mice [2]; low levels of CRF into PVN of SPF mice,increased
